“Also recorded” adds a separate entry of the source.
Legend:
[1] = test system: APP/PS1 mice; assay: Contextual and cued fear conditioning in APP/PS1 mice (TSA); format: in vivo
Procedure: Following experiments on acute effect of TSA in synaptic dysfunction, we determined if TSA is beneficial against impairment of contextual FC in APP/PS1 mice[A17]. 4 month-old mice were divided into 4 groups: APP/PS1 with TSA, APP/PS1 with vehicle, WT with TSA and WT with vehicle. TSA and vehicle control solution were administered i.p. at a concentration of 2 μg/g body weight. We found a similar shock threshold among the various groups of mice. Then, mice were trained to associate neutral stimuli with an aversive one. They were placed in a novel context (FC box), exposed to a white noise cue paired with a mild foot shock, and injected with TSA 2 hrs before training Fear learning was assessed 24 hrs later by measuring freezing behavior—the absence of all movement except for that necessitated by breathing—in response to representation of the context. We found no difference in the freezing behavior among the 4 groups of mice during the training phase of the FC. 24 hrs later, freezing behavior was decreased in vehicle-treated APP/PS1 mice compared to vehicle-treated WT littermates in analyzing contextual learning (FIG. 18).
HDAC inhibition rescues the defect in associative memory in APP/PS1 mice. Similar to humans affected by AD [B51] […] (herein incorporated by reference in its entirety). In rodents, associative learning can be assessed by contextual fear conditioning. This behavioral task, which is based on the association of a neutral stimulus with an aversive one, is dependent on hippocampal function [B52] (herein incorporated by reference in its entirety). Thus, following experiments on acute effect of TSA in synaptic dysfunction, we determined if TSA is beneficial against impairment of contextual fear conditioning in 3-4 month old APP/PS1 mice [B14] (herein incorporated by reference in its entirety). Animals were divided into 4 groups: APP/PS1 with TSA, APP/PS1 with vehicle, WT with TSA and WT with vehicle. TSA and vehicle control solution were administered i.p. at a concentration of 2 mg/Kg body weight. We found a similar shock threshold among the various groups of mice. Then, mice were trained to associate neutral stimuli with an aversive one. They were placed in a novel context (fear conditioning box), exposed to a white noise cue paired with a mild foot shock, and injected with TSA 2 hrs before training. Fear learning was assessed 24 hrs later by measuring freezing behavior—the absence of all movement except for that necessitated by breathing—in response to representation of the context. We found no difference in the freezing behavior among the 4 groups of mice during the training phase of the fear conditioning (F3,47=0.02997, p=0.9929, n=12-13/group; FIG. 18). Twenty-four hours later, we found a decreased freezing behavior in vehicle-treated APP/PS1 mice compared to vehicle-treated WT littermates in the analysis of the contextual learning (F3,47=[…], p=0.0280, n=12-13/group; FIG. 18).
Freezing in vehicle-treated APP/PS1 mice was about 46% that of vehicle-treated WT mice [vehicle-treated APP/PS1 mice: 14.88±2.97% vs. vehicle-treated WT littermates: 31.68±5.32%; n=13 (11 females plus 2 males) and n=13 (11 females plus 2 males), respectively; t=2.76, p=0.0109; FIG. 18]. […] We next tested cued fear conditioning, a hippocampus-independent task [B46] […] (herein incorporated by reference in its entirety).

[2] = biological target: T1, p300 (Homo sapiens, UniProt Q09472); assay: In vitro HAT activation assay, p300; format: biochemical; settings: in vitro assays; FIG. 72
T1 construct: we will use the catalytic domain of human CBP, PCAF, p300 and GCNS (Enzo Life Sci., USA); purchased Enzo Life Sci
Text: Compounds will be tested for HAT activator activity first, using the HAT Assay kit from Active Motif (USA, CA). For this assay, we will use the catalytic domain of human CBP, PCAF, p300 and GCNS (Enzo Life Sci., USA). The catalytic domains for the remaining HATs will be produced using New England Biolabs K. lactis Protein Expression Kit. […] When assayed against all other HATs, they must show at least a 50 fold greater potency towards CBP and/or PCAF.

[3] = Pharmacokinetics and brain penetration, plasma and brain by LC-MS/MS; format: in vivo, BALB/c mice
Procedure: After i.p. and i.v. administration at 20 mg/kg to BALB/c mice, plasma and brain concentrations were determined by LC-MS/MS.

[4] = Kinetics of YF2 in tail blood; format: in vivo, mice; settings: 20 mg/kg i.p.
Procedure: To this purpose, we administered the compound (20 mg/kg. i.p.) and then sampled blood from tails at different time points.

[5] = IP administration 20 mg/kg, brain
[6] = IV administration 20 mg/kg, brain

T1 sequence (Q09472 1287-1663 limits assumed): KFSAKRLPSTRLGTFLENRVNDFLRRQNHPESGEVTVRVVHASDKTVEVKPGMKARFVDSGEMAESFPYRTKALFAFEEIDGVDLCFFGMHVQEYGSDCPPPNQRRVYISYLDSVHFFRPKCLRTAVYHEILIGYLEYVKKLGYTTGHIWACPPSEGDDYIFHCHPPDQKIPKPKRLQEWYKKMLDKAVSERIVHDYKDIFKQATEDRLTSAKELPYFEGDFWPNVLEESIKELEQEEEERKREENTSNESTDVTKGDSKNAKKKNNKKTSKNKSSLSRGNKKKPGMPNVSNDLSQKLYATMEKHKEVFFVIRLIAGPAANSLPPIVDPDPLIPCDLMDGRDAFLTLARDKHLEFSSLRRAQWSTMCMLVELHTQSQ

Structure (SMILES): CC(/C=C/C(=O)NO)=C\[C@@H](C)C(=O)c1ccc(N(C)C)cc1 [TSA, trichostatin A]
- contextual fear memory deficit in APP/PS1 mice ([1]; TSA i.p. 2 hrs before training): improved memory; also recorded: ameliorates
- freezing time relative to vehicle-treated APP/PS1 mice ([1]; TSA-treated APP/PS1 mice, 2 mg/Kg i.p.): about 236.27%
- freezing, contextual fear conditioning 24 hrs after training ([1]; TSA-treated APP/PS1 mice, 2 mg/Kg i.p. 2 hrs before training): 35.15±6.99%
- freezing, contextual fear conditioning 24 hrs after training ([1]; TSA-treated WT mice, 2 mg/Kg i.p.): 36.95±6.43%
- cued fear conditioning, freezing among the 4 groups ([1]; pre-CS and CS): did not find a difference

Structure (SMILES): CCOc1cccc(OCCN(C)C)c1C(=O)Nc1ccc(Cl)c(C(F)(F)F)c1 [YF2]
- effect on p300 activity [2]: did not interfere; also recorded: increases p300 activity
- AUC0-t [3, 5]: 6493 ng·h/g
- AUC0-∞ [3, 5]: 6564 ng·h/g
- F [3, 5]: 29.2%
- F ([3]; IP administration 20 mg/kg, plasma): 41.0%
- AUC0-t [3, 6]: 22222 ng·h/g
- AUC0-∞ [3, 6]: 22581 ng·h/g
- time of peak in blood post-injection [4]: around 30 minutes
